Data reported in ChEMBL document CHEMBL1201862, “PubChem BioAssay data set” (2004).
The source made the active and inactive calls. No stated cut-off is given here; in the data, actives have a measured IC50 and inactives only a lower limit.

Target: Envelope glycoprotein gp160 (Human immunodeficiency virus 1, UniProt Q6QLK5)
Assay: inhibitors of HIV fusion peptide binding, primary screen, biochemical, uHTS, fluorescence dequenching (AID 1986)

Envelope glycoprotein gp160, sequence (Q6QLK5 whole entry, the tested form may be a part): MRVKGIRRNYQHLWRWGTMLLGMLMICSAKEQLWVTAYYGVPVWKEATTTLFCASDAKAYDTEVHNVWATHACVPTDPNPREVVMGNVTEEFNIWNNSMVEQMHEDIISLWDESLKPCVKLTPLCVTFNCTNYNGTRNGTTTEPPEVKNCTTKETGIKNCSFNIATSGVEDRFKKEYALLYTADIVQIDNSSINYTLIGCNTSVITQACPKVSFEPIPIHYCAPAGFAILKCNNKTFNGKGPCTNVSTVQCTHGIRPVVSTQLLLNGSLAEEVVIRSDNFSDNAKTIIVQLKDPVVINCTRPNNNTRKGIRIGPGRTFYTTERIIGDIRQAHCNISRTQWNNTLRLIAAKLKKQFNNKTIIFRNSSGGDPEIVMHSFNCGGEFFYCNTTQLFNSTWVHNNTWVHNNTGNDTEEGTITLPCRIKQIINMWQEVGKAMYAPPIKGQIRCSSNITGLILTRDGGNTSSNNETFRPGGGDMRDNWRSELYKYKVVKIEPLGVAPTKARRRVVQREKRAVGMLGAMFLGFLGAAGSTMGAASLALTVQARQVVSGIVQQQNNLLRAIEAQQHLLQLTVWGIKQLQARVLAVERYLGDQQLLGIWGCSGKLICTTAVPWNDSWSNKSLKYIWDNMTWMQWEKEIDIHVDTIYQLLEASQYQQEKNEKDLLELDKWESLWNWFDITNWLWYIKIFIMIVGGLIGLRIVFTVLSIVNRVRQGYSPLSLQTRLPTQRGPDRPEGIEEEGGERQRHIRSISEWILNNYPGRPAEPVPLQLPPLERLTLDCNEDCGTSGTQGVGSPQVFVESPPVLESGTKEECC

Row | Structure (SMILES) | IC50
1 | NC(=O)Cn1cc(C=C2C(=O)NC(=O)NC2=O)c2ccccc21 | 69.2 µM (active)
2 | Cc1ccc(NC(=O)COc2cccc(/C=C3\SC(=S)N(CCC(=O)O)C3=O)c2)cc1Cl | 12.2 µM (active)
